For orientation: pEC50 means −log10 of the EC50, conventionally taken in molar units. The pIC50 is −log10 of the IC50, conventionally taken in molar units. Low values mean a large IC50, high ones a small IC50.

The target in test [1] is T1, 5-HT2A (Homo sapiens, UniProt P28223). Put plainly: Serotonin 5-HT2A in vitro cellular IPOne agonism assay (HTRF). It counts as cell-based. Also noted: host or cells: CHO-K1. To be noted: CHO-K1 cells, agonist mode. As for the experimental part: Serotonin 5-HT2A In Vitro Cellular IPOne Agonism Assay. The 5-HT2A IPOne HTRF assay was performed at Epics Therapeutics S.A. (Belgium, FAST-0505I) using conventional methods. Briefly, CHO-K1 cells expressing human recombinant 5-HT2A receptor grown to mid-log phase in culture media without antibiotics were detached with PBS-EDTA, centrifuged, and resuspended in medium without antibiotics buffer. 20,000 cells were distributed in a 96 well plate and incubated overnight at 37° C. with 5% Co2.
T1 sequence (P28223 whole entry): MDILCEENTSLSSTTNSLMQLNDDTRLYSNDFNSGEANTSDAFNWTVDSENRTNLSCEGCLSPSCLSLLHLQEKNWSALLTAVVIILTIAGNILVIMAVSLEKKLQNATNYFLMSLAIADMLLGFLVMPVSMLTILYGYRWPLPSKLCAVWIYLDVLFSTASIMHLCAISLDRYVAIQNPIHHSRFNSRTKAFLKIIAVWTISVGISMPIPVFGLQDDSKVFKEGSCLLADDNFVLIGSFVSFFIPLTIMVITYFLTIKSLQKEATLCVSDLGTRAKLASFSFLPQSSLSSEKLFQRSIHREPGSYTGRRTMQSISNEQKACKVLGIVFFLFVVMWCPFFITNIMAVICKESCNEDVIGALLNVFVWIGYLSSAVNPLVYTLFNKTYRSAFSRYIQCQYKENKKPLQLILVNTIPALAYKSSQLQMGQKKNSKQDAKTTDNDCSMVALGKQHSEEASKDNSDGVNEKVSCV
For agonist testing, the medium was removed and 20 μl of assay buffer plus 20 μl of test compound or reference agonist were added in each well. The plate was incubated for 60 min. at 37° C. with 5% CO2.
After addition of the lysis buffer containing IP1-d2 and anti-IP1 cryptate detection reagents, plates were incubated 1-hour at room temperature, and fluorescence ratios were measured according to the manufacturer specification, with the HTRF kit.
(Time-resolved FRET reads energy transfer from a long-lived donor to a nearby acceptor.)

For test [2], the target named is T1, 5-HT2A. Nature of the test: Serotonin 5-HT2A in vitro radioligand binding competition assay ([3H]-DOI). Also noted: purchased Epics Therapeutics S.A. (Belgium) FAST-0505B. To be noted: [3H]-DOI radiotracer, membrane extracts. As for the experimental part: Serotonin 5-HT2A In Vitro Radioligand Binding Competition Assay. The 5-HT2A radioligand binding competition assay was performed at Epics Therapeutics S.A. (Belgium, FAST-0505B) using conventional methods. Briefly, competition binding was performed in duplicate in the wells of a 96 well plate (Master Block, Greiner, 786201) containing binding buffer (optimized for each receptor), membrane extracts (amount of protein/well optimized for each receptor), radiotracer [^3H]-DOI (final concentration optimized for each receptor) and test compound. Nonspecific binding was determined by co-incubation with 200-fold excess of cold competitor. The samples were incubated in a final volume of 0.1 ml at a temperature and for a duration optimized for each receptor and then filtered over filter plates. Filters were washed six times with 0.5 ml of ice-cold washing buffer (optimized for each receptor) and 50 μl of Microscint 20 (Packard) were added in each well. The plates were incubated 15 min on an orbital shaker and then counted with a TopCount™ for 1 min/well.

pEC50, pIC50: −log10 of the molar value.

In the case of `Cc1nc(CC(C)N)n2ccc(F)cc12` (stereo not drawn) [Compound 5, 1-(7-fluoro-1-methylimidazo [1,5-a]pyridin-3-yl)propan-2-amine], the pEC50 on 5-HT2A [1] was 5.00 to 6.00. This molecule also had a negative logarithm of the IC50 (pIC50) at 5-HT2A [2] of 5.00 to 6.00.

`Cc1cccn2c(CC(C)N(C)C)ncc12` (stereo not drawn) [Compound 21, N,N-dimethyl-1-(8-methylimidazo [1,5-a]pyridin-3-yl)propan-2-amine]: the pEC50 on 5-HT2A [1] was less than 5.00. Besides, at 5-HT2A [2], the pIC50 is 5.00 to 6.00.

`NCCc1ncn2ccccc12` [Compound 39, 2-(Imidazo[1,5-a]pyridin-1-yl)ethan-1-amine] had a pEC50 on 5-HT2A [1] of 5.00 to 6.00. The pIC50 at 5-HT2A [2] is 5.00 to 6.00.

`CC(N)Cc1cnn2ccccc12` (stereo not drawn) [Compound 48, 1-(pyrazolo[1,5-a]pyridin-3-yl)propan-2-amine] gave a pEC50 on 5-HT2A [1] of 5.00 to 6.00. On 5-HT2A [2], this molecule showed a pIC50 of less than 5.00.

For `Cc1nc(CC(C)N)n2ccccc12` (stereo not drawn) [Compound 11, 1-(1-methylimidazo[1,5-a]pyridin-3-yl)propan-2-amine], the pEC50 on 5-HT2A [1] was 5.00 to 6.00. The molecule also had a pIC50 at 5-HT2A [2] of 5.00 to 6.00.

Turning to `CC(Cc1cnn2ccccc12)N(C)C` (stereo not drawn) [Compound 50, N,N-dimethyl-1-(pyrazolo[1,5-a]pyridin-3-yl)propan-2-amine], the pEC50 at 5-HT2A [1] is less than 5.00. Besides, the pIC50 at 5-HT2A [2] was less than 5.00.

The molecule `CC(N)Cc1cnc2ccccn12` (stereo not drawn) [Compound 33, 1-(imidazo[1,2-a]pyridin-3-yl)propan-2-amine] had a pEC50 at 5-HT2A [1] of less than 5.00. In addition, the pIC50 on 5-HT2A [2] is less than 5.00.

For the molecule `NCCc1ncc2ccccn12` [Compound 1, 2-(imidazo[1,5-a]pyridin-3-yl)ethan-1-amine], the pEC50 on 5-HT2A [1] is less than 5.00. This molecule showed a pIC50 on 5-HT2A [2] of 5.00 to 6.00.

`CC(Cc1cnc2cc(F)ccn12)N(C)C` (stereo not drawn) [Compound 38, 1-(7-Fluoroimidazo[1,2-a]pyridin-3-yl)-N,N-dimethylpropan-2-amine] had a pEC50 at 5-HT2A [1] of less than 5.00. At 5-HT2A [2], this molecule gave a pIC50 of less than 5.00.

On to `Cc1nc(CCN(C)C)c2ccccn12` [Compound 45, N,N-dimethyl-2-(3-methylimidazo [1,5-a]pyridin-1-yl)ethan-1-amine], for which, on 5-HT2A [1], the pEC50 is less than 5.00. The pIC50 on 5-HT2A [2] was less than 5.00.

`Cc1nc(CCN)c2ccccn12` [Compound 41, 2-(3-methylimidazo[1,5-a]pyridin-1-yl)ethan-1-amine] gave a pEC50 on 5-HT2A [1] of less than 5.00. In addition, the pIC50 at 5-HT2A [2] is less than 5.00.

On 5-HT2A [1], `COc1ccn2c(CC(C)N)ncc2c1` (stereo not drawn) [Compound 3, 1-(7-methoxyimidazo[1,5-a]pyridin-3-yl)propan-2-amine] gave a pEC50 of less than 5.00. At 5-HT2A [2], the pIC50 was 5.00 to 6.00.

On to `C[C@@H](Cc1ncc2ccccn12)N(C)C` [Compound 29, (S)-1-(imidazo[1,5-a]pyridin-3-yl)-N,N-dimethylpropan-2-amine], for which the pEC50 at 5-HT2A [1] was less than 5.00. The molecule further showed a pIC50 on 5-HT2A [2] of 5.00 to 6.00.

For `CC(N)Cc1ncn2ccccc12` (stereo not drawn) [Compound 40, 1-(imidazo[1,5-a]pyridin-1-yl)propan-2-amine], at 5-HT2A [1], the pEC50 was less than 5.00. In addition, the pIC50 on 5-HT2A [2] is 5.00 to 6.00.

Consider `Cc1ccc2cnc(CC(C)N)n2c1` (stereo not drawn) [Compound 10, 1-(6-methylimidazo[1,5-a]pyridin-3-yl)propan-2-amine], for which the pEC50 at 5-HT2A [1] was 5.00 to 6.00. On 5-HT2A [2], this molecule gave a pIC50 of 5.00 to 6.00.

At 5-HT2A [1], `COc1ccn2c(CC(C)N(C)C)ncc2c1` (stereo not drawn) [Compound 16, 1-(7-methoxyimidazo[1,5-a]pyridin-3-yl)-N,N-dimethylpropan-2-amine] gave a pEC50 of less than 5.00. The same molecule had a pIC50 on 5-HT2A [2] of less than 5.00.

On to `Cc1ccn2c(CC(C)N(C)C)ncc2c1` (stereo not drawn) [Compound 22, N,N-dimethyl-1-(7-methylimidazo [1,5-a]pyridin-3-yl)propan-2-amine], for which the pEC50 at 5-HT2A [1] was less than 5.00. This molecule also had a pIC50 at 5-HT2A [2] of less than 5.00.

For the molecule `Cc1nc(CC(C)N(C)C)n2ccccc12` (stereo not drawn) [Compound 24, N,N-dimethyl-1-(1-methylimidazo [1,5-a]pyridin-3-yl)propan-2-amine], the pEC50 at 5-HT2A [1] was less than 5.00. Further, the pIC50 on 5-HT2A [2] is less than 5.00.

As to `CCN(CC)C(C)Cc1ncc2ccccn12` (stereo not drawn) [Compound 25, N,N-diethyl-1-(imidazo[1,5-a]pyridin-3-yl)propan-2-amine], the pEC50 on 5-HT2A [1] was less than 5.00. Also, the pIC50 on 5-HT2A [2] was 5.00 to 6.00.

For `NCCc1cnn2ccccc12` [Compound 47, 2-(Pyrazolo[1,5-a]pyridin-3-yl)ethan-1-amine], the pEC50 at 5-HT2A [1] is less than 5.00. On 5-HT2A [2], this molecule gave a pIC50 of less than 5.00.

Regarding `CC(Cc1ncc2ccccn12)N1CCOCC1` (stereo not drawn) [Compound 28, 4-(1-(Imidazo[1,5-a]pyridin-3-yl)propan-2-yl)morpholine], at 5-HT2A [1], the pEC50 was less than 5.00. Also, the pIC50 at 5-HT2A [2] is 5.00 to 6.00.

Molecule `Cc1nc(CC(C)N(C)C)n2ccc(F)cc12` (stereo not drawn) [Compound 18, 1-(7-fluoro-1-methylimidazo [1,5-a]pyridin-3-yl)-N,N-dimethylpropan-2-amine] gave a pEC50 on 5-HT2A [1] of less than 5.00. At 5-HT2A [2], this molecule showed a pIC50 of 5.00 to 6.00.

Molecule `COc1ccn2c(CC(C)N)cnc2c1` (stereo not drawn) [Compound 34, 1-(7-methoxyimidazo[1,2-a]pyridin-3-yl)propan-2-amine] had a pEC50 on 5-HT2A [1] of less than 5.00. For the same molecule, the pIC50 at 5-HT2A [2] was less than 5.00.

For `Cc1nc(CC(C)N(C)C)c2ccc(F)cn12` (stereo not drawn) [Compound 46, 1-(6-fluoro-3-methylimidazo [1,5-a]pyridin-1-yl)-N,N-dimethylpropan-2-amine], at 5-HT2A [1], the pEC50 is less than 5.00. The same molecule showed a pIC50 at 5-HT2A [2] of 5.00 to 6.00.

`COc1ccn2c(CC(C)N(C)C)cnc2c1` (stereo not drawn) [Compound 37, 1-(7-Methoxyimidazo[1,2-a]pyridin-3-yl)-N,N-dimethylpropan-2-amine] showed a pEC50 on 5-HT2A [1] of less than 5.00. At 5-HT2A [2], this molecule showed a pIC50 of less than 5.00.

On 5-HT2A [1], `CC(Cc1cnc2ccccn12)N(C)C` (stereo not drawn) [Compound 36, 1-(imidazo[1,2-a]pyridin-3-yl)-N,N-dimethylpropan-2-amine] gave a pEC50 of less than 5.00. Further, the pIC50 at 5-HT2A [2] is less than 5.00.

In turn, `CN(C)CCc1cnn2ccccc12` [Compound 49, N,N-dimethyl-2-(pyrazolo[1,5-a]pyridin-3-yl)ethan-1-amine] gave a pEC50 at 5-HT2A [1] of less than 5.00. In addition, the pIC50 on 5-HT2A [2] was less than 5.00.

As to `Cc1ccc2cnc(CC(C)N(C)C)n2c1` (stereo not drawn) [Compound 23, N,N-dimethyl-1-(6-methylimidazo [1,5-a]pyridin-3-yl)propan-2-amine], the pEC50 on 5-HT2A [1] was less than 5.00. The pIC50 at 5-HT2A [2] is less than 5.00.

Consider `Cc1cccc2cnc(CC(C)N(C)C)n12` (stereo not drawn) [Compound 20, N,N-dimethyl-1-(5-methylimidazo [1,5-a]pyridin-3-yl)propan-2-amine], for which, on 5-HT2A [1], the pEC50 was less than 5.00. Further, the pIC50 on 5-HT2A [2] is less than 5.00.

For `Cc1nc(CC(C)N)c2ccc(F)cn12` (stereo not drawn) [Compound 42, 1-(6-fluoro-3-methylimidazo[1,5-a]pyridin-1-yl)propan-2-amine], the pEC50 at 5-HT2A [1] is 5.00 to 6.00. Further, the pIC50 at 5-HT2A [2] is 5.00 to 6.00.

On 5-HT2A [1], `CC(N)Cc1ncc2ccccn12` (stereo not drawn) [Compound 2, 1-(imidazo [1,5-a]pyridin-3-yl)propan-2-amine] showed a pEC50 of 6.00 to 7.00. Also, the pIC50 on 5-HT2A [2] was 5.00 to 6.00.

As for `CC(N)Cc1cnc2cc(F)ccn12` (stereo not drawn) [Compound 35, 1-(7-Fluoroimidazo[1,2-a]pyridin-3-yl)propan-2-amine], the pEC50 at 5-HT2A [1] is less than 5.00. The same molecule gave a pIC50 at 5-HT2A [2] of less than 5.00.

Take `Cc1cccc2cnc(CC(C)N)n12` (stereo not drawn) [Compound 7, 1-(5-methylimidazo[1,5-a]pyridin-3-yl)propan-2-amine]: the pEC50 at 5-HT2A [1] was 5.00 to 6.00. The molecule also gave a pIC50 on 5-HT2A [2] of 5.00 to 6.00.
